For one test, the target named is T1, NaV1.5 (Homo sapiens, UniProt Q14524).
T1 construct: gene SCN5A
In words: two-electrode voltage clamp in Xenopus oocytes, […] inhibition at […]. Format: cell-based. For orientation: In two-electrode clamp one electrode senses voltage and the other passes current.

The target in another test is T2, NaV1.4 (Rattus norvegicus, UniProt P15390).
T2 construct: gene Scn4a
The test is described as follows: two-electrode voltage clamp in Xenopus oocytes, concentration-response; also QPatch patch clamp. It counts as cell-based.

One compound from article PMC4012458, “Action of Clathrodin and Analogues on Voltage-Gated Sodium Channels” (Marine Drugs, 2014) can be followed below.

T2 sequence (P15390 whole entry): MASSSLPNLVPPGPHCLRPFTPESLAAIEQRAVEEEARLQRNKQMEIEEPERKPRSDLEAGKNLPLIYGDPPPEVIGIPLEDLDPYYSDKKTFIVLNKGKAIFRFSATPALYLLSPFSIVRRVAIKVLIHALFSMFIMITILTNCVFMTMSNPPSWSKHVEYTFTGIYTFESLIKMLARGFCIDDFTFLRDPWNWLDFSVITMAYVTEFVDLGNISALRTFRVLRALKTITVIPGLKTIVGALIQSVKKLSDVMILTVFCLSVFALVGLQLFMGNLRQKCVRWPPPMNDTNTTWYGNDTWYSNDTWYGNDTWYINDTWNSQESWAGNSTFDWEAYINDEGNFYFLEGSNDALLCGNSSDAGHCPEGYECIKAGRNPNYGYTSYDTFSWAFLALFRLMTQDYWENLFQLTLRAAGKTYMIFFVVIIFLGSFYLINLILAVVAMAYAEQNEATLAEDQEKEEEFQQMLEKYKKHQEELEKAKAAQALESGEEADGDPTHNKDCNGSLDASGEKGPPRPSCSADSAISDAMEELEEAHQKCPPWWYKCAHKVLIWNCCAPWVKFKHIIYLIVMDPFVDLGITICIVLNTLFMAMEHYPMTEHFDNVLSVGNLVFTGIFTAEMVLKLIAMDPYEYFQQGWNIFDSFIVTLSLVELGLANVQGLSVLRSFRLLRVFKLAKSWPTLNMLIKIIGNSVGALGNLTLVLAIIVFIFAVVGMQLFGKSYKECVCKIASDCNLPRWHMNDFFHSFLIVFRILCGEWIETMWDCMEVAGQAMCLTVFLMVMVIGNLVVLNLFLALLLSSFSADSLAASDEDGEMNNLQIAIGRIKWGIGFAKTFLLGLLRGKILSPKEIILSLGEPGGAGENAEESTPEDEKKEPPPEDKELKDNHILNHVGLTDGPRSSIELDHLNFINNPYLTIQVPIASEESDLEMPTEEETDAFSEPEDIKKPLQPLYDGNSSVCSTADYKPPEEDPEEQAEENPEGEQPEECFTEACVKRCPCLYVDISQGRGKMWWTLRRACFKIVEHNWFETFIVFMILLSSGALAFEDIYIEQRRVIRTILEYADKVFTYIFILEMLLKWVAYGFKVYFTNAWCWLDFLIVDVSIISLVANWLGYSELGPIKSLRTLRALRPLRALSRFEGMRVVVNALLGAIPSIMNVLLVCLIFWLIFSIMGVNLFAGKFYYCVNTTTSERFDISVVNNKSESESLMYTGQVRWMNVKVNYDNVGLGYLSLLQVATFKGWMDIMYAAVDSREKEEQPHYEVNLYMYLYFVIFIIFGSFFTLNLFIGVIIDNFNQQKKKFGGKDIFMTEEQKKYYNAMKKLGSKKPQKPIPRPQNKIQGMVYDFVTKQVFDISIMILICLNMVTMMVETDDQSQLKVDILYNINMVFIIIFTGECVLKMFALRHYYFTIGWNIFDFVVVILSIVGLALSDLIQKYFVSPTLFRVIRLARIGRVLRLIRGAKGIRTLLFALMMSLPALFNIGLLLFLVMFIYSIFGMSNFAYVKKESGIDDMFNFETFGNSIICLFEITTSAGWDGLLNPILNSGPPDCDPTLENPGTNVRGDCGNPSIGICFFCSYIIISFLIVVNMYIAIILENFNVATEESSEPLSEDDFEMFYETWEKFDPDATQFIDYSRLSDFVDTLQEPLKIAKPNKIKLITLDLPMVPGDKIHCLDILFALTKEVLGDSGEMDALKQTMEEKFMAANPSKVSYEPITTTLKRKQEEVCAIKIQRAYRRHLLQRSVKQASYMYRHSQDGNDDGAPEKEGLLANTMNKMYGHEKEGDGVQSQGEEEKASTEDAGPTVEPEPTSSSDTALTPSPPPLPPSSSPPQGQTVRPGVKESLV
T1 sequence (Q14524 whole entry): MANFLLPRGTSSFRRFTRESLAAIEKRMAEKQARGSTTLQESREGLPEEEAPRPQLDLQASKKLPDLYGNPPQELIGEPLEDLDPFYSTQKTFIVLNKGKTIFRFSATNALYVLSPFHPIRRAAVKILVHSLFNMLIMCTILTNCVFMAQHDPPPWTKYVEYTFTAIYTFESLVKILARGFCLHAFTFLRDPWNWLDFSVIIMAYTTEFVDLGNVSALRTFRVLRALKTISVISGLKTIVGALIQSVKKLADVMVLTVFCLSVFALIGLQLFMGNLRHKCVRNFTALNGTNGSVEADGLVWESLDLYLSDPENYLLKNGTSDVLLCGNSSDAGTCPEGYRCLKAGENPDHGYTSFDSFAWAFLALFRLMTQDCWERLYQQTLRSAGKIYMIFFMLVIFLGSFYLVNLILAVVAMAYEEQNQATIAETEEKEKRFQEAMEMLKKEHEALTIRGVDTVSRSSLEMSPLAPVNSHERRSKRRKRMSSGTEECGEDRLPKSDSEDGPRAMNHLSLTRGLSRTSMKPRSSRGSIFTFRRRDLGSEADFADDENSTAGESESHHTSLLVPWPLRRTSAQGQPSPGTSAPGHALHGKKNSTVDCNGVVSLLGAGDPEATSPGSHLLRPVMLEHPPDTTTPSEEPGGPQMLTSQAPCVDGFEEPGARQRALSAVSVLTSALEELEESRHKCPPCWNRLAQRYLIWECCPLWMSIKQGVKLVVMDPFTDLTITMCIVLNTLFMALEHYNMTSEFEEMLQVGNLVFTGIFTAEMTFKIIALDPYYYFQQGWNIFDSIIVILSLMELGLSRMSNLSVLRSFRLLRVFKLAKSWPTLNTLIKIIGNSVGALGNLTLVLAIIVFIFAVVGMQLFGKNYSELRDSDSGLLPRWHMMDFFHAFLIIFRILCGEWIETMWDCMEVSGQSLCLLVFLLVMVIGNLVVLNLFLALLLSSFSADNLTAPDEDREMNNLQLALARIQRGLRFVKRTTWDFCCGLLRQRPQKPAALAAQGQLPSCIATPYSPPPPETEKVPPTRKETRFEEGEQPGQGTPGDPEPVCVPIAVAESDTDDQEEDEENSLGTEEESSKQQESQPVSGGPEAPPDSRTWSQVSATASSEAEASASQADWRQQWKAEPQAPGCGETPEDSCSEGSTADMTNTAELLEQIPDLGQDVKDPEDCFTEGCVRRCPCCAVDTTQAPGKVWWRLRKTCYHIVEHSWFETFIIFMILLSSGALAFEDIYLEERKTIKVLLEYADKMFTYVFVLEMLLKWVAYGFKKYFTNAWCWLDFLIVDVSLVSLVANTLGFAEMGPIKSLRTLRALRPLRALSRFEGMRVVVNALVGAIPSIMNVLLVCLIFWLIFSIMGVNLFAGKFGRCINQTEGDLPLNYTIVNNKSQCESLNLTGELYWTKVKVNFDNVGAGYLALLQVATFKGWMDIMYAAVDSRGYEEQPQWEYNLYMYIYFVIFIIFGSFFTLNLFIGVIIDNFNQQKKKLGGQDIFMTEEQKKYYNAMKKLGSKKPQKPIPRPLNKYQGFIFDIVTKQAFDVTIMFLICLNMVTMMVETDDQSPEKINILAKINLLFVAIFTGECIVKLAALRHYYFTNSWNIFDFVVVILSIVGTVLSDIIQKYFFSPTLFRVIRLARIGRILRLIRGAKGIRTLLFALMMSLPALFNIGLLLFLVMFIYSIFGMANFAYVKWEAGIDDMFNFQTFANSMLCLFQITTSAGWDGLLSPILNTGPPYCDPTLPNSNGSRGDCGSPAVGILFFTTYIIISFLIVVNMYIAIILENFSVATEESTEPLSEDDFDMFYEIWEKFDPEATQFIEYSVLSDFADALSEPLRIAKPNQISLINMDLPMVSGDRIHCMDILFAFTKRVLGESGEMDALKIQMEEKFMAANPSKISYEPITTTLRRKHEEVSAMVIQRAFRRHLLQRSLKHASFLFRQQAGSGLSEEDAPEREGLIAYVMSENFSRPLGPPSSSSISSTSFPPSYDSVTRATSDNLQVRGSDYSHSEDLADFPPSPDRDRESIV

`Nc1nc(-c2cccc(NC(=O)c3c[nH]c4ccccc34)c2)c[nH]1` [compound 9, Compound 9]: on NaV1.5, the inhibition (as a rule, the drop in the measured response relative to a control, in per cent) at 1 µM worked out at 19.6 ± 1.3%. For the same compound, half-maximal inhibition on NaV1.4 (IC50) was put at 3.5 ± 0.9 µM.
